Measurements reported in ChEMBL document CHEMBL2150864 (Eur J Med Chem, 2012).

Legend:
[1] = target: Vascular endothelial growth factor receptor 2 (Homo sapiens, UniProt P35968); assay: Binding affinity to DNA-tagged VEGFR2 by qPCR based competitive binding assay
[2] = Cytotoxicity against VEGFR expressing HAEC after 72 hrs by MTT assay; assay type: functional, Homo sapiens
[3] = tested on: HT-29; assay: Cytotoxicity against VEGFR expressing human HT-29 cells after 72 hrs by MTT assay; assay type: functional, cell-based; conditions: HT-29, 72 h
[4] = Metabolic stability in Wistar rat plasma at 39 MBq, iv after 60 mins; assay type: ADME, organism-based; conditions: read-out: Stability

Sequence of Vascular endothelial growth factor receptor 2 (P35968 whole entry): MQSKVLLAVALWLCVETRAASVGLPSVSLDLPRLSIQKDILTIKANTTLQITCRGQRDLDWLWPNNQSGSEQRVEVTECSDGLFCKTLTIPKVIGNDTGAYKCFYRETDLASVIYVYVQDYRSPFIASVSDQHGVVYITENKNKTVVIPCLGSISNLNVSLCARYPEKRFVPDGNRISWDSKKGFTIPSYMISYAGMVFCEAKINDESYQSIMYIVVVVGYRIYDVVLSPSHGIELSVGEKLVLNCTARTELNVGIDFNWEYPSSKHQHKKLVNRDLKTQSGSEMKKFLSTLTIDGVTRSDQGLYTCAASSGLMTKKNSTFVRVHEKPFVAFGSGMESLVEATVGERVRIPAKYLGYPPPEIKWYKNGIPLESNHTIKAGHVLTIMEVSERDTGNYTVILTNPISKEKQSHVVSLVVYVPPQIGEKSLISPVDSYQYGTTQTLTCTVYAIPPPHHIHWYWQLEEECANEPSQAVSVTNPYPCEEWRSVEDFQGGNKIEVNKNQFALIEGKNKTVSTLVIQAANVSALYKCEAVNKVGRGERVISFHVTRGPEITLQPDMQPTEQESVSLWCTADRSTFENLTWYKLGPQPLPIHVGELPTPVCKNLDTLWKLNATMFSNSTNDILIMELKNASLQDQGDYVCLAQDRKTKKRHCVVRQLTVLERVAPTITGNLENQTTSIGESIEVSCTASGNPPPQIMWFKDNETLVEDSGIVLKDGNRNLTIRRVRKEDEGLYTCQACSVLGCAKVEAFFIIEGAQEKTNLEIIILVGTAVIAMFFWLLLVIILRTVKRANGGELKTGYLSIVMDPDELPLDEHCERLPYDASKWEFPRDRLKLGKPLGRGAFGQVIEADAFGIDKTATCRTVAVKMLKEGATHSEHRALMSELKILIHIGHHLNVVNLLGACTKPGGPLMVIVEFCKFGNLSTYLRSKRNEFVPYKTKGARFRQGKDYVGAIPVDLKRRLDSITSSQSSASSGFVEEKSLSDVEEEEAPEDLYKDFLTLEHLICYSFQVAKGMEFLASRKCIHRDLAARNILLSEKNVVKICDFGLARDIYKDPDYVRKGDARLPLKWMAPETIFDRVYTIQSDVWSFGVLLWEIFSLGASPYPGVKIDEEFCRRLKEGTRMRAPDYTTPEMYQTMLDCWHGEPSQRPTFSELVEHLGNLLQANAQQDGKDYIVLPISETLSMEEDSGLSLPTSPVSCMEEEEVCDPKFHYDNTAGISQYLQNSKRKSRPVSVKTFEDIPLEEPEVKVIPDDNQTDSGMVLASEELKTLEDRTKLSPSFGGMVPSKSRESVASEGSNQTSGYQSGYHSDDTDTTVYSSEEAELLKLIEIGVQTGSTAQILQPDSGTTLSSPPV

CCN(CC)CCNC(=O)c1c(C)[nH]c(/C=C2\C(=O)Nc3ccc(OC)cc32)c1C
Kd [1]: 0.02 µM
IC50 [2]: 54.8 µM
IC50 [3]: 7.88 µM

CCN(CC)CCNC(=O)c1c(C)[nH]c(/C=C2\C(=O)Nc3ccc(O[11CH3])cc32)c1C
remaining at 1 h [4]: > 70%

CCN(CC)CCNC(=O)c1c(C)[nH]c(/C=C2\C(=O)Nc3ccc(F)cc32)c1C [SUNITINIB]
IC50 [2]: 0.1 µM
